Patent US9676774B2, “Compounds and compositions for treatment of cancer” (Sunesis Pharmaceuticals, Inc., priority 2006, dated 2017)

What was measured:
[1] = test system: HCT-116 cells; test: MTT cell viability (cytotoxicity) assay in HCT-116 cells; assay type: cell-based; settings: Homo sapiens, 72 hours incubation, highest concentration 5 μM, read-out: IC50 (reduced cell viability)
Protocol: MTT Dye Solution: 5 mg/mL MTT dye (Sigma #M2128) in sterile PBS, filter sterilized, stored at 4° C. in a dark bottle no longer than 1 month.
Lysis Buffer: 50% N,N-dimethyl formamide (Aldich #31,993-7) in dH20, 20% w/v lauryl sulfate (added with stirring at 37° C.) (Sigma #L4509), adjusted pH to 4.7 with 2.5% of 80% acetic acid (Fisher #A490-212) and 2.5% 1 N HCl (Spectrum #HY105).
Supplemented RPMI media: 500 mL RPMI (Cellgro #10-040-CV), 10% FBS (Cellgro #35-011CV) and 1% Sodium Bicarbonate solution (Cellgro @35-035-CI), 1% Antibotic Solution (100× stock; Cellgro #30-004CI).
HCT-116 cells were purchased from ATTC (#CCL-247).
Background: No cells, Totals: Cells treated with DMSO only
96-well tissue culture-treated flat bottom plates (Costar #3595) were plated with 4000 trypsinized cells in 100 μL/well and incubated overnight. 100× stock concentrations of compounds were prepared in DMSO and serially diluted two-fold in DMSO in a 96-well polypropylene v-bottom plate (Costar #3363). 5 μL of DMSO dilutions were then added to 45 μL supplemented RPMI, and 10 μL/well of this mixture were added to plates containing HCT-116 cells. The highest concentration of compounds was 5 μM. Plates were incubated for 72 hours at 37° C. in an incubator (5% CO2).
After incubation, 20 μL of MTT solution were added to each well and incubated at 37° C. for 1.5 hour. 100 μL lysis buffer was then added and plates were incubated for 48 hours at 37° C. Cell viability was then recorded by absorbance at 595 nm using a Biorad Benchmark Microplate Reader. The fraction of dead cells was determined by Fraction of Dead cells=Absorbance of sample well−Avg(no cell control)/Avg(Absorbance of DMSO only Control)−Avg(no cell control).

[2] = In vitro reaction of SNS-595 with pooled human liver microsomes (product identification); assay type: in vitro ADME; settings: for product formed from SNS-595 in liver microsomes: human liver microsomes 1 mg/mL, 10 or 100 μM SNS-595, 60 min, 37° C., NADPH
Protocol: The in vitro production of N-Desmethyl SNS-595 from SNS-595 was monitored as described herein. The pooled Human Liver Microsomes were obtained from BD Gentest and NADPH was obtained from Sigma.
The in vitro reactions were performed (a) in the presence of NADPH as a cofactor and (b) in the absence of NADPH to identify any SNS-595 derivatives generated by cofactor independent mechanisms.
The reaction mixture constituted 100 mM Sodium Phosphate buffer, pH 7.4, containing 3.3 mM MgCl2, 1 mg/mL liver microsomal protein, 10 or 100 μM SNS-595, and 1 mM NADPH for reaction with NADPH. In both the NADPH plus and minus reactions, SNS-595 was added to the reaction mixture and allowed to equilibrate to 37° C. for 10 minutes before starting the reaction by adding NADPH or an equivalent volume of buffer. Reactions were performed in a volume of 1 mL in 2 mL 96-well polypropylene assay blocks. The reaction was stopped by adding an equal volume of acetonitrile at both 0 and 60 minutes after initiating the reaction. Samples were placed on ice until centrifugation at 4100 g for 10 minutes to remove proteins for subsequent analysis.
SNS-595 and the reaction products were identified on an API 4000 mass spectrometer coupled to a turbo electro spray ionization source. Prior to MS analysis chromatography was performed to achieve separation of the reaction precuts (N-desmethyl-SNS-595 had the […] SNS-595). The HPLC system consisted of an Agilent 1100 binary pump and single wavelength UV/Vis as a detector, and a Phenomenex Synergi Hydro-RP column (150×2 mm, 4 micron, 80 Å particle size). Following column separation, UV spectra were collected at 350 nm before mass spectral analysis. Mass spectral identification of the reaction products was done using a series of three experiments; MS full scan, product ion scans on all reaction products identified in the MS full scan analysis as well as multiple reaction monitoring (MRM) or product ion scans on theoretically possible reaction products. […]

product formed from SNS-595 in liver microsomes [2]	product detectable after incubation of SNS-595 in liver microsomes ([2]; human liver microsomes, 10 μM incubation concentration of SNS-595)	Structure (SMILES)	IC50 [1]
predominant product formed	only product detectable	CO[C@H]1CN(c2ccc3c(=O)c(C(=O)O)cn(-c4nccs4)c3n2)C[C@@H]1N [N-desmethyl-SNS-595, (+)-1,4-dihydro-7-[(3S,4S)-3-methoxy-4-amino-1-pyrrolidinyl]-4-oxo-1-(2-thiazolyl)-1,8-naphthyridine-3-carboxylic acid]	507 nM
second product formed	–	CN[C@H]1CN(c2ccc3c(=O)c(C(=O)O)cn(-c4nccs4)c3n2)C[C@@H]1O [O-desmethyl-SNS-595, (+)-1,4-dihydro-7-[(3S,4S)-3-hydroxy-4-methylamino-1-pyrrolidinyl]-4-oxo-1-(2-thiazolyl)-1,8-naphthyridine-3-carboxylic acid]	> 5000 nM
–	–	CN[C@H]1CN(c2ccc3c(=O)c(C(=O)O)cn(-c4nccs4)c3n2)C[C@@H]1OC [SNS-595, (+)-1,4-dihydro-7-[(3S,4S)-3-methoxy-4-(methylamino)-1-pyrrolidinyl]-4-oxo-1-(2-thiazolyl)-1,8-naphthyridine-3-carboxylic acid]	425 nM
